Assay results taken from PubChem BioAssay (NCI).
“And” between values parts separate entries of the source, which are not always exact repeats. Equal entries are not always repeated.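 The compound was tested at five concentrations on cells cultured in 96-well plates, with a 48-hour exposure period. GI50 is the concentration that inhibits growth by half. At the TGI there is no net growth.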

Legend:
Experiment in all cases: inhibition of tumour cell growth, NCI panel, 48 h
MDA-MB-435 = test system: MDA-MB-435
NCI-H460 lung = test system: NCI-H460 lung
OVCAR-4 ovarian = test system: OVCAR-4 ovarian
RPMI-8226 leukemia = test system: RPMI-8226 leukemia
SF-268 CNS = test system: SF-268 CNS
SF-539 CNS = test system: SF-539 CNS
SK-OV-3 ovarian = test system: SK-OV-3 ovarian
SNB-75 CNS = test system: SNB-75 CNS

With `COc1ccccc1C#Cc1ccccc1C#Cc1ccc(OCCCCCCOc2ccccc2C#Cc2ccccc2C#Cc2ccccc2OC)cc1` the GI50 (MDA-MB-435) was > 100 µM, the TGI (MDA-MB-435) was > 100 µM and the GI50 (NCI-H460 lung) was > 100 µM. The TGI (NCI-H460 lung) was > 100 µM, the GI50 (OVCAR-4 ovarian) was > 100 µM and the TGI (OVCAR-4 ovarian) was > 100 µM. The GI50 (RPMI-8226 leukemia) was > 100 µM, the TGI (RPMI-8226 leukemia) was > 100 µM and the GI50 (SF-268 CNS) was > 100 µM. The TGI (SF-268 CNS) was > 100 µM, the GI50 (SF-539 CNS) was > 100 µM and the TGI (SF-539 CNS) was > 100 µM. The GI50 (SK-OV-3 ovarian) was > 100 µM, the TGI (SK-OV-3 ovarian) was > 100 µM and the GI50 (SNB-75 CNS) was > 100 µM. The TGI (SNB-75 CNS) was > 100 µM.
For `Cc1ccc(CNc2ccc3nc(CCC4CCCCC4)[nH]c3c2)cc1`, the GI50 (MDA-MB-435) was 2.09 µM, the TGI (MDA-MB-435) was 4.85 µM and the GI50 (NCI-H460 lung) was 2.99 µM. The TGI (NCI-H460 lung) was 8.6 µM, the GI50 (OVCAR-4 ovarian) was 3.23 µM and the TGI (OVCAR-4 ovarian) was 18.7 µM. The GI50 (RPMI-8226 leukemia) was 2.03 µM, the TGI (RPMI-8226 leukemia) was 4.64 µM and the GI50 (SF-268 CNS) was 3.08 µM. The TGI (SF-268 CNS) was > 100 µM, the GI50 (SF-539 CNS) was 2.42 µM and the TGI (SF-539 CNS) was 6.06 µM. It also gave a GI50 (SK-OV-3 ovarian) of 2.17 µM, a TGI (SK-OV-3 ovarian) of 5.44 µM and a GI50 (SNB-75 CNS) of 1.75 µM. It also gave a TGI (SNB-75 CNS) of 5.25 µM.
`CC(=O)O.CN1[CH-]N(Cc2ccc(C#N)cc2)c2ccccc21.[Ag+]` was tested, and the GI50 (MDA-MB-435) was 16.9 µM, the TGI (MDA-MB-435) was 32 µM and the GI50 (NCI-H460 lung) was > 100 µM. For the same compound, the TGI (NCI-H460 lung) was > 100 µM, the GI50 (OVCAR-4 ovarian) was 15.8 µM and the TGI (OVCAR-4 ovarian) was 32.8 µM. For the same compound, the GI50 (RPMI-8226 leukemia) was 31.3 µM, the TGI (RPMI-8226 leukemia) was > 100 µM and the GI50 (SF-268 CNS) was 72 µM. The TGI (SF-268 CNS) was > 100 µM, the GI50 (SF-539 CNS) was 43.7 µM and the TGI (SF-539 CNS) was > 100 µM. The GI50 (SK-OV-3 ovarian) was 24.4 µM, the TGI (SK-OV-3 ovarian) was 63.5 µM and the GI50 (SNB-75 CNS) was 20.6 µM. The TGI (SNB-75 CNS) was 68.9 µM.
`COc1cnc2c(c1)C(=O)c1c-2n(CCCN2CCCC2)c(=O)c2cc([N+](=O)[O-])ccc12` was tested, and the GI50 (MDA-MB-435) was 0.0647 µM, the TGI (MDA-MB-435) was 1.13 µM and the GI50 (NCI-H460 lung) was < 0.01 µM. For the same compound, the TGI (NCI-H460 lung) was 0.116 µM, the GI50 (OVCAR-4 ovarian) was 0.0848 µM and the TGI (OVCAR-4 ovarian) was 10.5 µM. For the same compound, the GI50 (RPMI-8226 leukemia) was 0.0374 µM, the TGI (RPMI-8226 leukemia) was 1.11 µM and the GI50 (SF-268 CNS) was 0.0191 µM. It also gave a TGI (SF-268 CNS) of 12.8 µM, a GI50 (SF-539 CNS) of 0.0308 µM and a TGI (SF-539 CNS) of 0.353 µM. For the same compound, the GI50 (SK-OV-3 ovarian) was 0.0336 µM, the TGI (SK-OV-3 ovarian) was 0.843 µM and the GI50 (SNB-75 CNS) was 0.0457 µM. It also gave a TGI (SNB-75 CNS) of 14.3 µM.
For `NC(=O)c1cc(N2CC2)c([N+](=O)[O-])cc1[N+](=O)[O-]`, the TGI (MDA-MB-435) was > 200 µM, the TGI (NCI-H460 lung) was > 77 µM and the GI50 (OVCAR-4 ovarian) was > 200 µM. For the same compound, the TGI (OVCAR-4 ovarian) was > 200 µM, the GI50 (RPMI-8226 leukemia) was > 200 µM and the TGI (RPMI-8226 leukemia) was > 200 µM. For the same compound, the GI50 (SF-268 CNS) was > 200 µM, the TGI (SF-268 CNS) was > 200 µM and the GI50 (SF-539 CNS) was > 200 µM. For the same compound, the TGI (SF-539 CNS) was > 200 µM, the GI50 (SK-OV-3 ovarian) was > 200 µM and the TGI (SK-OV-3 ovarian) was > 200 µM. For the same compound, the GI50 (SNB-75 CNS) was > 200 µM and the TGI (SNB-75 CNS) was > 200 µM.
In the case of `COc1ccc(Br)cc1NC(=O)Nc1cccc2c1ccn2Cc1ccnc(N)c1`, the GI50 (MDA-MB-435) is reported as 5.42 µM and 5.81 µM, the TGI (MDA-MB-435) is reported as 23.5 µM and > 10 µM and the GI50 (NCI-H460 lung) is reported as 3.85 µM and 4.2 µM. The TGI (NCI-H460 lung) was 15.1 µM and > 10 µM, the GI50 (OVCAR-4 ovarian) was 3.85 µM and 5.52 µM and the TGI (OVCAR-4 ovarian) was > 47.8 µM. For the same compound, the GI50 (RPMI-8226 leukemia) was 2.93 µM and 3.54 µM, the TGI (RPMI-8226 leukemia) was > 31.6 µM and the GI50 (SF-268 CNS) was 6.16 µM and > 10 µM. The TGI (SF-268 CNS) was 32.5 µM and > 10 µM, the GI50 (SF-539 CNS) was 3.34 µM and 2.38 µM and the TGI (SF-539 CNS) was 19.3 µM and > 10 µM. For the same compound, the GI50 (SK-OV-3 ovarian) was 8.38 µM and > 10 µM, the TGI (SK-OV-3 ovarian) was 26.3 µM and > 10 µM and the GI50 (SNB-75 CNS) was 2.19 µM and 5.1 µM. The TGI (SNB-75 CNS) was 42.8 µM and > 10 µM.
For `Cc1c(Cn2c(C)nc3c(C(=O)O)cc(N4CCOCC4)cc32)cccc1C(F)(F)F`, the GI50 (MDA-MB-435) was 66 µM, the TGI (MDA-MB-435) was > 100 µM and the GI50 (NCI-H460 lung) was 40 µM. For the same compound, the TGI (NCI-H460 lung) was > 100 µM, the GI50 (OVCAR-4 ovarian) was 42.4 µM and the TGI (OVCAR-4 ovarian) was > 100 µM. The GI50 (RPMI-8226 leukemia) was 64.8 µM, the TGI (RPMI-8226 leukemia) was > 100 µM and the GI50 (SF-268 CNS) was 56 µM. The TGI (SF-268 CNS) was > 100 µM, the GI50 (SF-539 CNS) was 72.6 µM and the TGI (SF-539 CNS) was > 100 µM. The GI50 (SK-OV-3 ovarian) was 77.5 µM, the TGI (SK-OV-3 ovarian) was > 100 µM and the GI50 (SNB-75 CNS) was 12.3 µM. For the same compound, the TGI (SNB-75 CNS) was > 100 µM.
Compound `COc1cc(-c2nn(-c3cccc(NC(=O)Nc4ccc(Cl)c(C(F)(F)F)c4)c3)cc2-c2ccncc2)ccc1Cl` has a GI50 (MDA-MB-435) of 0.683 µM, a TGI (MDA-MB-435) of 1.69 µM and a GI50 (NCI-H460 lung) of 1.11 µM. The TGI (NCI-H460 lung) was 4.79 µM, the GI50 (OVCAR-4 ovarian) was 1.29 µM and the TGI (OVCAR-4 ovarian) was 25.6 µM. For the same compound, the GI50 (RPMI-8226 leukemia) was 0.868 µM, the TGI (RPMI-8226 leukemia) was 3.25 µM and the GI50 (SF-268 CNS) was 1.46 µM. For the same compound, the TGI (SF-268 CNS) was 9.14 µM, the GI50 (SF-539 CNS) was 1.66 µM and the TGI (SF-539 CNS) was 6.34 µM. The GI50 (SK-OV-3 ovarian) was 1.45 µM, the TGI (SK-OV-3 ovarian) was 13 µM and the GI50 (SNB-75 CNS) was 1.28 µM. For the same compound, the TGI (SNB-75 CNS) was 10.3 µM.
`COC(=O)/C=C1/SC(=Nc2cccc(Cl)c2)N(CCc2c[nH]c3ccc(O)cc23)C1=O` was tested, and the GI50 (MDA-MB-435) was 1.68 µM, the TGI (MDA-MB-435) was 3.96 µM and the GI50 (NCI-H460 lung) was 2.04 µM. For the same compound, the TGI (NCI-H460 lung) was 4.1 µM, the GI50 (OVCAR-4 ovarian) was 1.4 µM and the TGI (OVCAR-4 ovarian) was 4.44 µM. The GI50 (RPMI-8226 leukemia) was 1.24 µM, the TGI (RPMI-8226 leukemia) was 3.98 µM and the GI50 (SF-268 CNS) was 1.76 µM. For the same compound, the TGI (SF-268 CNS) was 4.47 µM, the GI50 (SF-539 CNS) was 1.63 µM and the TGI (SF-539 CNS) was 3.24 µM. The GI50 (SK-OV-3 ovarian) was 2.24 µM, the TGI (SK-OV-3 ovarian) was 5.01 µM and the GI50 (SNB-75 CNS) was 2.11 µM. For the same compound, the TGI (SNB-75 CNS) was 5.1 µM.
For `CCOC(=O)c1[nH]c2cc(Cl)ccc2c1[C@@H](C(=O)NC(C)(C)C)N(CC)C(=O)CCCCC#Cc1cccc2c1CN(C1CCC(=O)NC1=O)C2=O` (some centres undefined), the GI50 (MDA-MB-435) was 2.34 µM, the TGI (MDA-MB-435) was > 31.7 µM and the GI50 (NCI-H460 lung) was 3.11 µM. The TGI (NCI-H460 lung) was > 54.3 µM, the GI50 (OVCAR-4 ovarian) was < 0.01 µM and the TGI (OVCAR-4 ovarian) was 23.5 µM. It also gave a GI50 (RPMI-8226 leukemia) of 0.185 µM, a TGI (RPMI-8226 leukemia) of 2.88 µM and a GI50 (SF-268 CNS) of 0.0476 µM. It also gave a TGI (SF-268 CNS) of 28.7 µM, a GI50 (SF-539 CNS) of 1.74 µM and a TGI (SF-539 CNS) of 11.7 µM. For the same compound, the GI50 (SK-OV-3 ovarian) was 0.694 µM, the TGI (SK-OV-3 ovarian) was 16.9 µM and the GI50 (SNB-75 CNS) was < 0.01 µM. For the same compound, the TGI (SNB-75 CNS) was 4.81 µM.
`Cc1c(CN2CCN(C(=O)[C@H](C)O)CC2)sc2c(N3CCOCC3)nc(-c3cnc(N)nc3)nc12` was tested, and the GI50 (MDA-MB-435) was 0.285 µM and 0.186 µM, the TGI (MDA-MB-435) was 3.16 µM and 1.38 µM and the GI50 (NCI-H460 lung) was 0.12 µM and 0.108 µM. For the same compound, the TGI (NCI-H460 lung) was > 100 µM, the GI50 (OVCAR-4 ovarian) was 0.346 µM and 0.144 µM and the TGI (OVCAR-4 ovarian) was 3.86 µM and 1.09 µM. The GI50 (RPMI-8226 leukemia) was 0.267 µM and 0.206 µM, the TGI (RPMI-8226 leukemia) was > 8.66 µM and 11.8 µM and the GI50 (SF-268 CNS) was 0.328 µM and 0.204 µM. For the same compound, the TGI (SF-268 CNS) was > 10 µM and 27.1 µM, the GI50 (SF-539 CNS) was 0.388 µM and 0.222 µM and the TGI (SF-539 CNS) was 2.27 µM and 0.875 µM. For the same compound, the GI50 (SK-OV-3 ovarian) was 0.123 µM and 0.112 µM, the TGI (SK-OV-3 ovarian) was 1.13 µM and 0.573 µM and the GI50 (SNB-75 CNS) was 0.0317 µM and 0.0235 µM. The TGI (SNB-75 CNS) was 0.67 µM and 0.255 µM.
